Like-named read-outs stand apart in the source and are kept apart here. Non-standard residues stand in square brackets, D forms with d. Residues, ends and D or L forms follow the SMILES beside them. *: point of attachment. Hyp = O=C(O)[C@@H]1C[C@@H](O)CN1; Nle = CCCC[C@H](N)C(=O)O; NH(CH2)3NH2 = NCCCN*; Bn = c1ccc(C*)cc1
Experiments:
MC5-R = MC5-R (Homo sapiens, UniProt P33032); assay: Competitive inhibition binding assay, 125I-NDP-α-MSH, MC5-R; set-up: expressed in transfected cells; conditions: for Inhibition at 1 μM MC5-R: 1 μM compound, inhibition of 125I-NDP-α-MSH binding, mean of triplicates, results less than 0% reported as 0%
Summary of the method: (§1)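 Membranes from hMC3-R, hMC4-R or hMC5-R cells, or B-16 mouse melanoma cells (MC1-R), were incubated 90 min at room temperature with 0.4 nM 125I-NDP-α-MSH in HEPES pH 7.2 with Mg2+/Ca2+/K+, and test compound generally at 1 μM. Filter-bound radioactivity was gamma counted. Specific binding was defined with 1 μM α-MSH; triplicate means.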

[1] = target: T1, MC1-R (B-16 mouse melanoma cells) (Mus musculus, UniProt Q01727); assay: cAMP assay for agonist/antagonist status, MC1-R; format: cell-based
T1 construct: B-16 mouse melanoma cells (containing MC1-R); endogenous in cells; host or cells: B-16 mouse melanoma cells
Method: (§2) The Ki (nM) of certain peptidomimetics were determined, as was the agonist/antagonist status with respect to MC4-R, Functional evaluation of compounds at melanocortin receptors was performed by measuring the accumulation of intracellular cAMP in HEK-293 cells expressing MC3-R, MC4-R or MC5-R, and in B-16 mouse melanoma cells (containing MC1-R). Antagonistic activity was determined by measuring the inhibition of α-MSH-induced cAMP levels following exposure to the compounds. Cells, suspended in Earle's Balanced Salt Solution containing 10 mM HEPES, pH 7.5, 5 mM MgCl2, 1 mM glutamine, 0.1% albumin and 0.6 mM 3-isobutyl-1-methyl-xanthine, a phosphodiesterase inhibitor, were plated in 96 well plates at a density of 0.5×10^5 cells per well. Cells were incubated with the test compounds in the presence or absence of α-MSH for 1 hour at 37° C. cAMP levels were measured by EIA (Amersham) in the cell lysates. Data analysis and EC50 values were determined using nonlinear regression analysis with Prism Graph-Pad software.

MC4-R (HEK-293 cells) = target: T2, MC4-R (HEK-293 cells) (Homo sapiens, UniProt P32245); assay: cAMP assay for agonist/antagonist status, MC4-R; format: cell-based
T2 construct: expressed in transfected cells; host or cells: HEK-293
Method: as §2

MC4-R = MC4-R (Homo sapiens, UniProt P32245); assay: Competitive inhibition binding assay, 125I-NDP-α-MSH, MC4-R; set-up: expressed in transfected cells; conditions: for Inhibition at 1 μM MC4-R: 1 μM compound, inhibition of 125I-NDP-α-MSH binding, mean of triplicates, results less than 0% reported as 0%
Summary of the method: as §1

[2] = target: T1, MC1-R (B-16 mouse melanoma cells); assay: Competitive inhibition binding assay, 125I-NDP-α-MSH, MC1-R; conditions: for Inhibition at 1 μM MC1-R: 1 μM compound, inhibition of 125I-NDP-α-MSH binding, mean of triplicates, results less than 0% reported as 0%
Summary of the method: as §1

MC3-R = MC3-R (Homo sapiens, UniProt P41968); assay: Competitive inhibition binding assay, 125I-NDP-α-MSH, MC3-R; set-up: expressed in transfected cells; conditions: for Inhibition at 1 μM MC3-R: 1 μM compound, inhibition of 125I-NDP-α-MSH binding, mean of triplicates, results less than 0% reported as 0%
Summary of the method: as §1

MC5-R (HEK-293 cells) = target: T3, MC5-R (HEK-293 cells) (Homo sapiens, UniProt P33032); assay: cAMP assay for agonist/antagonist status, MC5-R; format: cell-based
T3 construct: expressed in transfected cells; host or cells: HEK-293
Method: as §2

MC3-R, sequence (P41968 whole entry): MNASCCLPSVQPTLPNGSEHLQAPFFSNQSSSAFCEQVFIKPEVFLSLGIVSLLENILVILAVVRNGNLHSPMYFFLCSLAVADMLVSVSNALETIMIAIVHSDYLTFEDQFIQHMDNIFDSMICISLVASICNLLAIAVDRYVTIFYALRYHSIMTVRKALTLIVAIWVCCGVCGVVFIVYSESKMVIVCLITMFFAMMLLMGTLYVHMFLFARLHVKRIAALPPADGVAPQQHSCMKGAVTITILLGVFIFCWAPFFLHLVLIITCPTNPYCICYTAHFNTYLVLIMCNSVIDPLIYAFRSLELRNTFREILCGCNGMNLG
T1 sequence (Q01727 whole entry): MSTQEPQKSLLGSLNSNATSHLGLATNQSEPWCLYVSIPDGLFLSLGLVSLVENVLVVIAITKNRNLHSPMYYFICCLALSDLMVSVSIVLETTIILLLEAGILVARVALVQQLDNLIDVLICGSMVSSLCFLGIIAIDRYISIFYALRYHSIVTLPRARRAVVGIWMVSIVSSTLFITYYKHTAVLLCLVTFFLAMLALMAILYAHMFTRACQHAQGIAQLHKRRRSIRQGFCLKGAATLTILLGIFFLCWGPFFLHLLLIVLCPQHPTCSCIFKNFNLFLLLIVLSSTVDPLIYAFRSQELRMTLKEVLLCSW
MC4-R, sequence (P32245 whole entry): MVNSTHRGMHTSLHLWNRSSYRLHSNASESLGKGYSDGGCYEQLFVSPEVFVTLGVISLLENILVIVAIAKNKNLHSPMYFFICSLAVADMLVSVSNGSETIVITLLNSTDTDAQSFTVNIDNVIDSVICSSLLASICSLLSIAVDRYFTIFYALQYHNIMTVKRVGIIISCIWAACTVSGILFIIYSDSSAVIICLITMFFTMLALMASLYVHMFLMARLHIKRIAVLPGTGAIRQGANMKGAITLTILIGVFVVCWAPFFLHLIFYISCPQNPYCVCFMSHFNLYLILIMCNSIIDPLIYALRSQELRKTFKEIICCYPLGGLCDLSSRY
T2 sequence (P32245 whole entry): as above
T3 sequence (P33032 whole entry): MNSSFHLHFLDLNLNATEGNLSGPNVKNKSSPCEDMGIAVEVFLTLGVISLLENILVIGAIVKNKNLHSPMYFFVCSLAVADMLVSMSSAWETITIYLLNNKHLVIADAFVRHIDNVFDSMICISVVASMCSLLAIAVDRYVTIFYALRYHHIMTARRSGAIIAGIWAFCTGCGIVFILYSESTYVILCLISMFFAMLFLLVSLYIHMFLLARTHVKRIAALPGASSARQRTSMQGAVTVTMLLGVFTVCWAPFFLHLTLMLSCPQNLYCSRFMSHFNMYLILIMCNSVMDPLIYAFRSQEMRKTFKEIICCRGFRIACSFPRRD
MC5-R, sequence (P33032 whole entry): as above

Inhibition at 1 μM MC5-R (MC5-R) [%] | agonist/antagonist status as to MC1-R [1] | agonist/antagonist status as to MC4-R (MC4-R (HEK-293 cells)) | Inhibition at 1 μM MC4-R (MC4-R) [%] | Inhibition at 1 μM MC1-R [2] [%] | Inhibition at 1 μM MC3-R (MC3-R) [%] | agonist/antagonist status as to MC5-R (MC5-R (HEK-293 cells)) | agonist/antagonist status as to MC1-R ([1]; listed as Compound 1) | inhibition at 1 µM (MC5-R) [%] | inhibition at 1 µM (MC4-R) [%] | inhibition at 1 µM [2] [%] | inhibition at 1 µM (MC3-R) [%] | SMILES
76 | agonist | agonist | 98 | 40 | 47 | agonist | – | – | – | – | – | NCCCC[C@H]1C(=O)N(CCc2ccc3ccccc3c2)CCN1C(=O)[C@@H](Cc1ccc(Cl)cc1Cl)NC(=O)[C@@H](N)COCc1ccccc1 [Example 22]
80 | agonist | agonist | 100 | 63 | 62 | agonist | – | – | – | – | – | NCCCC[C@H]1C(=O)N(CCc2ccc3ccccc3c2)CCN1C(=O)[C@@H](Cc1ccc(Cl)cc1Cl)NC(=O)[C@@H]1Cc2ccccc2CN1 [Example 23]
78 | agonist | agonist | 99 | 30 | 34 | agonist | – | – | – | – | – | C[C@@H](OCc1ccccc1)[C@H](N)C(=O)N[C@H](Cc1ccc(Cl)cc1Cl)C(=O)N1CCN(CCc2ccc3ccccc3c2)C(=O)[C@@H]1CCCCN [Example 24]
83 | agonist | agonist | 100 | 21 | 61 | agonist | – | – | – | – | – | NCCCC[C@H]1C(=O)N(CCc2ccc3ccccc3c2)CCN1C(=O)[C@@H](Cc1ccc(Cl)cc1Cl)NC(=O)[C@@H]1C[C@@H](OCc2ccccc2)CN1 [Example 25]
46 | agonist | agonist | 71 | 0 | 9 | agonist | – | – | – | – | – | NCCCC[C@H]1C(=O)N(CCc2ccc3ccccc3c2)CCN1C(=O)[C@@H](Cc1ccc(Cl)cc1Cl)NC(=O)[C@H]1CC[C@@H](c2ccccc2)N1 [Example 27]
61 | antagonist | antagonist | 91 | 14 | 25 | agonist | – | – | – | – | – | NCCCC[C@H]1C(=O)N(CCc2ccc3ccccc3c2)CCN1C(=O)[C@@H](Cc1ccc(Cl)cc1Cl)NC(=O)C/C=C/c1ccccc1 [Example 33]
34 | agonist | antagonist | 92 | 72 | 22 | agonist | – | – | – | – | – | NCCCC[C@H]1C(=O)N(CCc2ccc3ccccc3c2)CCN1C(=O)[C@@H](Cc1ccc(Cl)cc1Cl)NC(=O)CCc1ccccc1 [Example 36]
25 | agonist | – | 8 | 91 | 13 | – | full agonistic activity | – | – | – | – | CCCC[C@H](NC(C)=O)C(=O)N[C@@H](C)C(=O)N[C@@H](Cc1cnc[nH]1)C(=O)N[C@H](Cc1ccccc1)C(=O)N1C[C@H](OCc2ccccc2)C[C@H]1C(=O)NCCCN [Example 133] (Ac-[Nle]AH[dF][Hyp](Bn)-{NH(CH2)3NH2})
0 | – | – | 8 | 0 | 41 | – | – | – | – | – | – | NCCCNC(=O)[C@@H]1C[C@@H](OCc2ccccc2)CN1C(=O)[C@@H](Cc1ccccc1)NC(=O)C1(N)CCCCC1 [Example 162]
0 | – | – | 15 | 0 | 16 | – | – | – | – | – | – | NCCCNC(=O)[C@@H]1C[C@@H](OCc2ccccc2)CN1C(=O)[C@@H](Cc1ccccc1)NC(=O)C1(N)Cc2ccccc2C1 [Example 163]
1 | – | – | 13 | 0 | 0 | – | – | – | – | – | – | NCCCNC(=O)[C@@H]1C[C@@H](OCc2ccccc2)CN1C(=O)[C@@H](Cc1ccccc1)NC(=O)[C@@H](N)Cc1ccc2ccccc2c1 [Example 164]
0 | – | – | 16 | 0 | 2 | – | – | – | – | – | – | NCCCNC(=O)[C@@H]1C[C@@H](OCc2ccccc2)CN1C(=O)[C@@H](Cc1ccccc1)NC(=O)[C@@H](N)Cc1cccc2ccccc12 [Example 165]
0 | – | – | 8 | 0 | 13 | – | – | – | – | – | – | NCCCNC(=O)[C@@H]1C[C@@H](OCc2ccccc2)CN1C(=O)[C@@H](Cc1ccccc1)NC(=O)[C@H](N)Cc1cccc2ccccc12 [Example 166]
5 | – | – | 8 | 22 | 0 | – | – | – | – | – | – | [2H]N1CCCC1C(=O)NC(Cc1ccccc1)C(=O)N1CC(OCc2ccccc2)CC1C(=O)NCCCN (stereo not drawn) [Example 167]
0 | – | – | 10 | 18 | 0 | – | – | – | – | – | – | NCCCNC(=O)[C@@H]1C[C@@H](OCc2ccccc2)CN1C(=O)[C@@H](Cc1ccccc1)NC(=O)C1CCC(CN)CC1 (stereo partly drawn) [Example 168]
0 | – | – | 6 | 12 | 0 | – | – | – | – | – | – | NCCCNC(=O)[C@@H]1C[C@@H](OCc2ccccc2)CN1C(=O)[C@@H](Cc1ccccc1)NC(=O)c1ccc(CN)cc1 [Example 169]
25 | – | – | 9 | 11 | 0 | – | – | – | – | – | – | NCCCNC(=O)[C@@H]1C[C@@H](OCc2ccccc2)CN1C(=O)[C@@H](Cc1ccccc1)NC(=O)[C@@H](N)Cc1ccc(-c2ccccc2)cc1 [Example 171]
0 | – | – | 4 | 14 | 0 | – | – | – | – | – | – | NCCCNC(=O)[C@@H]1C[C@@H](OCc2ccccc2)CN1C(=O)[C@@H](Cc1ccccc1)NC(=O)[C@@H]1Cc2ccccc2N1 [Example 172]
0 | – | – | 7 | 7 | 13 | – | – | – | – | – | – | NCCCNC(=O)[C@@H]1C[C@@H](OCc2ccccc2)CN1C(=O)[C@@H](Cc1ccccc1)NC(=O)[C@H](N)C(c1ccccc1)c1ccccc1 [Example 173]
2 | – | – | 15 | 10 | 21 | – | – | – | – | – | – | NCCCNC(=O)[C@@H]1C[C@@H](OCc2ccccc2)CN1C(=O)[C@@H](Cc1ccccc1)NC(=O)[C@@H](N)C1Cc2ccccc2C1 [Example 174]
0 | – | – | 19 | 3 | 0 | – | – | – | – | – | – | NCCCNC(=O)[C@@H]1C[C@@H](OCc2ccccc2)CN1C(=O)[C@@H](Cc1ccccc1)NC(=O)[C@H](N)C1Cc2ccccc2C1 [Example 175]
8 | – | – | 8 | 18 | 0 | – | – | – | – | – | – | CC(O)C(N)C(=O)NC(Cc1ccccc1)C(=O)N1CC(OCc2ccccc2)CC1C(=O)NCCCN (stereo not drawn) [Example 176]
0 | – | – | 7 | 2 | 0 | – | – | – | – | – | – | NCCCNC(=O)C1CC(OCc2ccccc2)CN1C(=O)C(Cc1ccccc1)NC(=O)C1CCC(=O)N1C(=O)OCc1ccccc1 (stereo not drawn) [Example 177]
0 | – | – | 0 | 33 | 0 | – | – | – | – | – | – | CCCCCCC(=O)NC(COCc1ccccc1)C(=O)NC(Cc1ccc2ccccc2c1)C(=O)N1CC2CC(Oc3ccc4ccccc4c3)CN2C(=O)C1CCCCN (stereo not drawn) [Example 178]
– | – | – | – | – | – | – | – | 0 | 0 | 0 | 0 | [2H]N[C@@H](Cc1cnc[nH]1)C(=O)N[C@@H](Cc1ccccc1)C(=O)N1CC2C[C@H](Oc3ccc4ccccc4c3)CN2C(=O)[C@@H]1CCCCN (stereo partly drawn) [Example 179]

— patent publication US7807678B2, “Peptidomimetics of biologically active metallopeptides” (Palatin Technologies, Inc., priority 2001, dated 2010)
